# Laboratory results: patent US20060069132A1, “Azolecarboxamide herbicides” (priority 2004, published 2006)
# Experiments:
# barnyardgrass [1] = assay: Test A pre-/postemergence herbicide test; type: in vivo, Echinochloa crus-galli
# Procedure, shortened: (§1)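 Greenhouse injury scoring (0–100, complete control = 100) at approximately ten days follows simultaneous pre- and postemergence application. Soil received a directed spray after seeding; seedlings of 2–10 cm at the one- to two-leaf stage were sprayed to runoff.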
# large crabgrass = assay: Test A pre-/postemergence herbicide test; type: in vivo, Digitaria sanguinalis
# Procedure, shortened: as §1
# giant foxtail = assay: Test A pre-/postemergence herbicide test; type: in vivo, Setaria faberi
# Procedure, shortened: as §1
# redroot pigweed = assay: Test A pre-/postemergence herbicide test; type: in vivo, Amaranthus retroflexus
# Procedure, shortened: as §1
# bermudagrass = assay: Test C pre-/postemergence herbicide test; type: in vivo, Cynodon dactylon; conditions: for Plant response rating, Bermudagrass: preemergence
# Procedure, shortened: (§2)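 Pre/post spray; non-phytotoxic solvent + surfactant. Post-timing 1–4 leaves, 2–18 cm. Read-out: visual % control vs untreated, day 12–14, greenhouse.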
# Surinam grass = assay: Test C pre-/postemergence herbicide test; type: in vivo, Urochloa decumbens; conditions: preemergence
# Procedure, shortened: as §2
# woolly cupgrass = assay: Test C pre-/postemergence herbicide test; type: in vivo, Eriochloa villosa; conditions: preemergence
# Procedure, shortened: as §2
# johnsongrass = assay: Test C pre-/postemergence herbicide test; type: in vivo, Sorghum halepense; conditions: preemergence
# Procedure, shortened: as §2
# morningglory = assay: Test C pre-/postemergence herbicide test; type: in vivo, Ipomoea coccinea; parameters: key to Plant response rating, Morningglory: 0 = no effect, 100 = complete control; conditions: preemergence
# Procedure, shortened: as §2
# barnyardgrass [2] = assay: Test C flooded paddy test; type: in vivo, Echinochloa crus-galli
# Procedure, shortened: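 Postemergence sprays were applied to plants 2 to 18 cm tall (1- to 4-leaf stage); in the flooded paddy test, barnyardgrass was grown to the 2-leaf stage. After 12 to 14 days in a greenhouse, injury was visually rated against untreated controls on a 0–100 scale (100 = complete control).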
# [3] = Postemergence, 500 g ai/ha, 0 to 100 scale, 0 no effect, 100 complete control
# [4] = Postemergence, 2000 g ai/ha, 0 to 100 scale, 0 no effect, 100 complete control
# [5] = Preemergence, 2000 g ai/ha, visual rating, 0 to 100 scale (0 no effect, 100 complete control)
# [6] = preemergence, 500 g ai/ha, visual injury, 0 to 100 scale (0 no effect, 100 complete control)
# [7] = 125 g ai/ha, scale 0 (no effect) to 100 (complete control), visual, 12 to 14 days
# [8] = 500 g ai/ha, scale 0 to 100 (0 no effect, 100 complete control), visual, 12 to 14 days
compound,measurement,setting,value
CCNC(=O)c1ccc(F)c(NC(=O)C2CC(C(C)(C)C)=NN2CC)c1 (racemic) [Compound 269],Barnyardgrass plant response rating,barnyardgrass [1]; [3],70
same,"Plant response rating, Barnyardgrass",barnyardgrass [1]; [4],80
same,Barnyardgrass plant response rating,barnyardgrass [1]; [5],100
same,Barnyardgrass plant response rating,barnyardgrass [1]; [6],95
same,"Crabgrass, Large plant response rating",large crabgrass; [3],35
same,"Plant response rating, Crabgrass, Large",large crabgrass; [4],80
same,"Crabgrass, Large plant response rating",large crabgrass; [5],100
same,"Crabgrass, Large plant response rating",large crabgrass; [6],65
same,"Foxtail, Giant plant response rating",giant foxtail; [3],35
same,"Plant response rating, Foxtail, Giant",giant foxtail; [4],65
same,"Foxtail, Giant plant response rating",giant foxtail; [5],100
same,"Foxtail, Giant plant response rating",giant foxtail; [6],100
same,Pigweed plant response rating,redroot pigweed; [3],35
same,"Plant response rating, Pigweed",redroot pigweed; [4],50
same,Pigweed plant response rating,redroot pigweed; [5],100
same,Pigweed plant response rating,redroot pigweed; [6],100
same,"Plant response rating, Bermudagrass","bermudagrass; 62 g ai/ha, scale 0 to 100, 0 no effect, 100 complete control",100
same,"Plant response rating, Bermudagrass",bermudagrass; [7],100
same,"Plant response rating, Bermudagrass","bermudagrass; 250 g ai/ha, scale 0-100",100
same,Bermudagrass plant response rating,"bermudagrass; Preemergence, 500 g ai/ha, scale 0 to 100, 0 no effect, 100 complete control",100
same,"Plant response rating, Surinam Grass","Surinam grass; 62 g ai/ha, scale 0 to 100",5
same,"Plant response rating, Surinam Grass","Surinam grass; 250 g ai/ha, scale 0-100",85
same,"Plant response rating, Surinam Grass",Surinam grass; [8],95
same,"Plant response rating, Cupgrass, Woolly","woolly cupgrass; 62 g ai/ha, scale 0 to 100",10
same,"Plant response rating, Cupgrass, Woolly",woolly cupgrass; [7],40
same,"Plant response rating, Cupgrass, Woolly","woolly cupgrass; 250 g ai/ha, scale 0-100",60
same,"Plant response rating, Cupgrass, Woolly",woolly cupgrass; [8],85
same,"Plant response rating, Johnsongrass","johnsongrass; 62 g ai/ha, scale 0 to 100",40
same,"Plant response rating, Johnsongrass",johnsongrass; [7],60
same,"Plant response rating, Johnsongrass","johnsongrass; 250 g ai/ha, scale 0-100",100
same,"Plant response rating, Johnsongrass",johnsongrass; [8],100
same,"Plant response rating, Morningglory","morningglory; 62 g ai/ha, scale 0 to 100",0
same,"Plant response rating, Morningglory",morningglory; [7],5
same,"Plant response rating, Morningglory","morningglory; 250 g ai/ha, scale 0-100",10
same,"Plant response rating, Morningglory",morningglory; [8],40
same,Barnyardgrass plant response rating,"barnyardgrass [2]; 62 g ai/ha, scale 0 to 100 (0 no effect, 100 complete control)",45
same,Barnyardgrass plant response rating,"barnyardgrass [2]; 125 g ai/ha, scale 0 to 100 (0 no effect, 100 complete control)",65
same,Barnyardgrass plant response rating,"barnyardgrass [2]; 250 g ai/ha, scale of 0 to 100, 0 is no effect, 100 is complete control",75
same,"Plant response rating, Barnyardgrass","barnyardgrass [2]; 500 g ai/ha, visual rating after 12 to 14 days, scale 0 to 100 (0 no effect, 100 complete control)",90
